Measurements: ChEMBL document CHEMBL1201862, “PubChem BioAssay data set” (2004)
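Protocol summary: plate cells (96-well), add compound at 5 concentrations, incubate 48 h, interpolate endpoints linearly. At the GI50, growth is halved.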 Active and inactive are the calls of the source. Rule as the data show it: active = GI50 up to about 1.1 µM and inactive = higher.

Columns and labels:
Test in all cases: inhibition of tumour cell growth, NCI panel, 48 h
[1] = tested on: HT-29
[2] = tested on: SNB-19
[3] = tested on: SR
[4] = tested on: NCI-H226
[5] = tested on: NCI-H460
[6] = tested on: SF-295
[7] = tested on: NCI-H23
[8] = tested on: SNB-75
[9] = tested on: OVCAR-4
[10] = tested on: SF-539
[11] = tested on: EKVX
[12] = tested on: M14
[13] = tested on: M19-MEL
[14] = tested on: DLD-1
[15] = tested on: HOP-92
[16] = tested on: UACC-62
[17] = tested on: KM-20L2
[18] = tested on: IGROV-1

Measured: GI50

c1cnc2c(c1)-n1cccc1C1(CCSC1)NN2 (stereo not given)
inactive: [1] > 100 µM | [2] > 100 µM | [3] > 100 µM | [4] > 100 µM | [5] > 100 µM | [6] > 100 µM | [7] > 100 µM | [8] > 100 µM | [9] > 100 µM | [10] > 100 µM | [11] > 100 µM | [12] > 100 µM | [13] > 100 µM | [14] > 100 µM

CC(C)N1C(C)[C@@H](c2ccccc2)O[P@@]1(=O)CC1=CCCCC1 (stereo not given in full)
inactive: [1] > 100 µM | [3] 69.5 µM | [15] 45.8 µM | [4] > 100 µM | [5] > 100 µM | [6] 57 µM | [16] 47.1 µM | [7] > 100 µM | [17] > 100 µM | [8] > 100 µM | [10] > 100 µM | [11] > 100 µM | [18] > 100 µM | [12] > 100 µM | [13] > 100 µM | [14] > 100 µM

Nc1ccc(N)c2c1C(=O)c1c(N)ccc(N)c1C2=O
inactive: [1] > 100 µM | [2] 47.8 µM | [15] 36.6 µM | [4] 14.6 µM | [5] > 73.5 µM | [6] 70 µM | [16] 58.3 µM | [7] > 73.1 µM | [17] > 100 µM | [8] 28.4 µM | [9] 37.1 µM | [10] 31.8 µM | [11] > 64.9 µM | [18] > 100 µM | [12] > 77.3 µM | [13] > 71.1 µM | [14] 78.7 µM

COC(=O)C(Cc1nc2ccccc2nc1O)C(=O)C(=O)Nc1ccc(OC)cc1[N+](=O)[O-] (stereo not given)
inactive: [1] 82.8 µM | [2] > 100 µM | [3] > 100 µM | [15] 96.2 µM | [4] > 100 µM | [5] > 100 µM | [6] > 100 µM | [16] > 100 µM | [7] > 100 µM | [17] > 100 µM | [9] > 100 µM | [10] > 100 µM | [11] > 100 µM | [18] > 100 µM | [12] > 100 µM | [13] > 100 µM

N#CC1(c2nc3ccccc3o2)C(=O)C(=O)N(c2ccc(Cl)c(Cl)c2)C(=O)C1=O
inactive: [1] > 100 µM | [2] > 100 µM | [15] 12.2 µM | [4] > 100 µM | [5] > 100 µM | [6] > 100 µM | [7] > 100 µM | [17] > 100 µM | [8] > 100 µM | [9] 58.6 µM | [11] > 100 µM | [12] > 100 µM | [14] > 100 µM

CCOC(=O)C1(Br)C(c2ccccc2)NC(=O)N(C2OC(COC(=O)c3ccccc3)C(OC(=O)c3ccccc3)C2OC(=O)c2ccccc2)C1(C)Br (stereo not given)
inactive: [1] 18.2 µM | [2] 39.9 µM | [15] 18.1 µM | [5] 31 µM | [6] 33.3 µM | [16] 10.6 µM | [7] 29.4 µM | [17] 37.9 µM | [8] 13.3 µM | [9] 13.9 µM | [10] 38.7 µM | [11] 36.7 µM | [18] 34.9 µM | [12] 21 µM | [13] 28.4 µM | [14] 36.4 µM

N#CC12CCC(O)C(CC1)C2=O (stereo not given)
inactive: [1] > 100 µM | [2] > 100 µM | [3] 27.3 µM | [4] > 100 µM | [5] 70 µM | [6] > 100 µM | [16] > 100 µM | [7] > 100 µM | [17] > 100 µM | [8] > 100 µM | [9] > 100 µM | [10] > 100 µM | [11] > 100 µM | [18] > 100 µM | [12] > 100 µM | [13] > 100 µM | [14] 47.3 µM

Cc1cc2c(cc1CO)N1Cc3cc(C)c(CO)cc3N(C2)C1
inactive: [1] > 100 µM | [2] > 100 µM | [4] > 100 µM | [5] > 100 µM | [6] > 100 µM | [16] > 100 µM | [7] > 100 µM | [17] > 100 µM | [8] > 100 µM | [9] > 100 µM | [10] > 100 µM | [11] > 100 µM | [18] > 100 µM | [12] > 100 µM | [13] > 100 µM | [14] > 100 µM
